Data taken from patent US20180369203A1, “METHODS OF TREATING CANCER BY ADMINISTERING A MEK INHIBITOR IN COMBINATION WITH A PROTEASOME INHIBITOR” (The Jackson Laboratory, priority 2015, published 2018).
Read-outs that look alike come from different tables or passages of the source. Peptide text beside a SMILES is read from it. * marks the point of attachment. Cbz = O=C(OCc1ccccc1)*

Tests used:
[1] = tested on: ERK complexes precipitated from HEK293T cells; test: In vitro kinase assay with immunoprecipitated ERK complexes; assay type: biochemical
Procedure: (§1) Co-expressed GFP proteins served as internal controls. […] See also FIG. 10.
(§2) Samples were boiled for 5 min to stop reactions.

HSF1 Ser326 [2] = test: HSF1 Ser326 phosphorylation by immunoblotting in HEK293T cells; assay type: cell-based; settings: overnight, 20 μM U0126, 20 nM AZD6244, 1 μM FR180204 or 100 nM Sch772984
Procedure: This figure is related to FIG. 3. (A) Validation of phospho-HSF1 Ser326 antibodies. […] (B) MEK blockade impairs HSF1 Ser326 phosphorylation. […] (D-E) S326A mutation impairs HSF1 nuclear translocation. […] (F) Acute MEK depletion diminishes HSF1 proteins. […] HSF1 proteins were detected by immunoblotting. (G) ERK-mediated HSF1 Ser307 phosphorylation depends on MEK. […] Levels of phosphor-HSF1 Ser307 were measured by immunoblotting. (H) HSF1 Ser326 phosphorylation inhibits Ser307 phosphorylation.

HSF1 Ser326 [3] = settings: NIH3T3; 20 μM U0126 for 3 hrs, then heat shock 43° C. 30 mins
Procedure: NIH3T3 cells were treated with 20 μM U0126 for 3 hrs followed by heat shock at 43° C. for 30 mins HSF1 Ser326 phosphorylation was detected by immunoblotting.
Whole-cell protein extracts were prepared in cold cell-lysis buffer (100 mM NaCl, 30 mM Tris-HCl pH 7.6, 1% Triton X-100, 30 mM NaF, 1 mM EDTA, 1 mM sodium orthovanadate, and Halt™ protease inhibitor cocktail from Thermo Scientific). Proteins were separated on SDS-PAGE gels and transferred to nitrocellulose membranes. Primary antibodies were applied in wash buffer overnight at 4° C. Peroxidase-conjugated secondary antibodies were applied at room temperature for 1 hr, and signals were visualized by SuperSignal West chemiluminescent substrate (Thermo Fisher Scientific), followed by exposure to films.

MEK1 = MEK1 (Homo sapiens, UniProt Q02750); settings: 100 ng GST-MEK1, 400 ng His-HSF1, RT
Sequence of MEK1 (Q02750 whole entry): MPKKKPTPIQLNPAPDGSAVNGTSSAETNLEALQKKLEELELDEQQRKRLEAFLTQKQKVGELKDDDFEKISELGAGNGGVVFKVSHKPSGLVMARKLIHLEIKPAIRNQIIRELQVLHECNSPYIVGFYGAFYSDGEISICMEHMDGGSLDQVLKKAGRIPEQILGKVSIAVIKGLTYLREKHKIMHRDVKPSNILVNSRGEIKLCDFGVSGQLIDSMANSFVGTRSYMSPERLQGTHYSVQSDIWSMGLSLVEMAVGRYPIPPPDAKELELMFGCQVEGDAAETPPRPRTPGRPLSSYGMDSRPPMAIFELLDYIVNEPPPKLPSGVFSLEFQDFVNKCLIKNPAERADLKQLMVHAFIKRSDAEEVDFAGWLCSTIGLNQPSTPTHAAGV
Procedure: as §1, §2

Hsp genes = test: qRT-PCR of heat-shock-induced Hsp mRNA in NIH3T3 cells; assay type: cell-based, mouse; settings: 20 μM U0126 or 20 nM AZD6244 for 3 hr, then HS and 4-hr recovery
Procedure: (A) NIH3T3 cells were treated with HS at 43° C. for 30 min, 10 μM tubastatin A for 5 hr, 40 μM VER155008 for 1 hr, 500 nM MG132 for 1 hr, 200 nM 17-DMAG for 1 hr, and 2.5 mM azetidine for 15 min (B) The dual ELK1 reporter system, comprising a serum response element (SRE)-driven secreted embryonic alkaline phosphatase (SEAP) plasmid and a CMV-driven Gaussia luciferase (GLuc) plasmid, was transfected into HEK293T cells. After 24 hr, cells were treatments as in (A) and recovered overnight before measuring reporter activities (mean±SD, n=6, ANOVA). (C and D) NIH3T3 cells were treated with 20 μM U0126 or 20 nM AZD6244 for 3 hr followed by HS and 4-hr recovery. mRNA levels were quantitated by qRT-PCR (mean±SD, n=3, Student's t-test). (E) Immediately after HS, nuclear proteins of NIH3T3 cells treated as in (C) were extracted to measure HSF1-DNA binding by an ELISA-based assay (mean±SD, n=3, ANOVA). […]
Total RNAs were extracted using RNA STAT-60 reagent (Tel-Test, Inc.), and RNAs were used for reverse transcription using a Verso cDNA Synthesis kit (Thermo Fisher Scientific). Equal amounts of cDNA were used for quantitative PCR reaction using a DyNAmo SYBR Green qPCR kit (Thermo Fisher Scientific). Signals were detected by an ABI 7500 Real-Time PCR System (Applied Biosystems). […]

HSF1 [4] = test: ELISA-based HSF1-DNA binding assay, NIH3T3 nuclear proteins; assay type: cell-based, mouse; settings: NIH3T3, immediately after HS; 20 μM U0126 or 20 nM AZD6244 for 3 hr
Procedure: (§3) (A) NIH3T3 cells were treated with HS at 43° C. for 30 min, 10 μM tubastatin A for 5 hr, 40 μM VER155008 for 1 hr, 500 nM MG132 for 1 hr, 200 nM 17-DMAG for 1 hr, and 2.5 mM azetidine for 15 min (B) The dual ELK1 reporter system, comprising a serum response element (SRE)-driven secreted embryonic alkaline phosphatase (SEAP) plasmid and a CMV-driven Gaussia luciferase (GLuc) plasmid, was transfected into HEK293T cells. After 24 hr, cells were treatments as in (A) and recovered overnight before measuring reporter activities (mean±SD, n=6, ANOVA). (C and D) NIH3T3 cells were treated with 20 μM U0126 or 20 nM AZD6244 for 3 hr followed by HS and 4-hr recovery. mRNA levels were quantitated by qRT-PCR (mean±SD, n=3, Student's t-test). (E) Immediately after HS, nuclear proteins of NIH3T3 cells treated as in (C) were extracted to measure HSF1-DNA binding by an ELISA-based assay (mean±SD, n=3, ANOVA). (F) HEK293T cells were transfected with dual HSF1 reporter plasmids, a heat-shock element (HSE)-driven SEAP plasmid and a CMV-GLuc plasmid. […] (G) HEK293T cells were treated with different inhibitors overnight. […] After 24 hr, cells were heat shocked at 43° C. for 30 min followed by overnight recovery (mean±SD, n=3, ANOVA). (L)-(O) HEK293T cells were transfected with siRNAs for 48 hr followed by transfection with dual HSF1 reporter plasmids for 24 hr before HS (mean±SD, n=6, ANOVA). […]

HSF1 [5] = test: Dual HSF1 reporter assay (HSE-SEAP / CMV-GLuc) in HEK293T cells; assay type: cell-based; settings: 20 μM U0126, 20 nM AZD6244, 1 μM FR180204 or 100 nM Sch772984
Procedure: as §3, with “ANOVA).” for “ANOVA). (L)-(O) HEK293T cells were transfected with siRNAs for 48 hr followed by transfection with dual HSF1 reporter plasmids for 24 hr before HS (mean±SD, n=6, ANOVA).”
FIGS. 8A-H illustrate that MEK and ERK inversely regulate the PSR. […] Cell viability was measured by a Guava EasyCyte™ flow cytometer using Guava ViaCount™ reagents (mean±SD, n=5, Student's t test). […] Levels of ERK1 and ERK2 mRNAs were quantitated in HEK293T cells transfected with ERK1-targeting siRNAs by qRT-PCR (mean±SD, n=3, ANOVA). […] Levels of ERK2 and ERK1 mRNAs were quantitated in HEK293T cells transfected with ERK2-targeting siRNAs by qRT-PCR (mean±SD, n=3, ANOVA).
Plasmids were transfected with TurboFect transfection reagent (Thermo Scientific). SEAP and luciferase activities in culture supernatants were quantitated using a Ziva® Ultra SEAP Plus Detection Kit (Jaden BioScience) and a Gaussia Luciferase Glow Assay Kit (Thermo Scientific), respectively. Luminescence signals were measured by a VICTORS Multilabel plate reader (PerkinElmer).

[6] = tested on: V5-TOR1AIP2, V5-RPL3, V5-RPL15; test: Levels and ubiquitination of V5-tagged proteins in HEK293T cells; assay type: cell-based; settings: 500 nM MG132 co-treated with 20 nM AZD6244, 8 hr
c-MYC, RPL15, RPL3 = test: Endogenous c-MYC, RPL15 and RPL3 proteins in A2058 cells; assay type: cell-based, human; settings: 20 nM AZD6244 co-treated with 500 nM MG132
Procedure: (A) GFP and GFP-GR plasmids were co-transfected into HEK293T cells followed by treatments with 20 nM AZD6244, 20 μM U0126, or 200 nM 17-DMAG for 4 hr. (B) GFP-GR plasmids were co-transfected into HEK293T cells with HA-Ub-K48 plasmids, which encode a mutant ubiquitin that can be conjugated to protein substrates only via lysine 48. Following treatments with 20 nM AZD6244 or 200 nM 17-DMAG for 4 hr, GFP-GR proteins were precipitated and ubiquitination was detected using anti-HA antibodies. (C) Denatured firefly luciferases were incubated with lysates of A2058 cells treated with DMSO or 20 nM AZD6244 (mean±SD, n=4, ANOVA). (D) A2058 cells were treated with 20 nM AZD6244, and ubiquitinated proteins were detected in both detergent-soluble and -insoluble fractions using Lys48-specific ubiquitin antibodies. (E) A2058 cells stably expressing LacZ or HSF1^S326D were treated with 20 nM AZD6244 for 8 hr. (F) C57BL/6J mice were i.p. injected with DMSO or AZD6244 three times a week for 2 weeks. S: spleen; K: kidney; L: liver. (G) Experimental procedures of MS-based quantitation of ubiquitinated peptides, two technical replicates per treatment. […] (Q) Endogenous RPL15 and RPL3 proteins were detected in A2058 cells treated with 20 nM AZD6244 alone or co-treated with 500 nM MG132. (R) Endogenous RPL15 and RPL3 proteins were detected in A2058 cells stably expressing LacZ or HSF1^S326D with AZD6244 treatment. […]

`N#CC(=C(/N)Sc1ccccc1N)/C(C#N)=C(\N)Sc1ccccc1N` [U0126] was tested, and the “phosphorylation of recombinant ERK1 proteins by precipitated ERK complexes” value ([1]; 400 ng GST-ERK1) was “blocked”, the “HSF1 Ser326 phosphorylation by precipitated ERK complexes” value ([1]; 400 ng His-HSF1) was “blocked” and the “HSF1 Ser326 phosphorylation” value (HSF1 Ser326 [2]) was “impairs”. The “HSF1 Ser326 phosphorylation” value (HSF1 Ser326 [3]) was “impaired”, the “HSF1 Ser326 phosphorylation by recombinant MEK1” value (MEK1) was “blocked” and the “HS-induced transcription of Hsp genes” value (Hsp genes) was “impeded”. The “DNA-binding capacity of HSF1” value (HSF1 [4]) was “impaired” and the “transcriptional activation of HSF1” value (HSF1 [5]) was “impaired”.

With `CC(C)C[C@@H](C=O)NC(=O)[C@H](CC(C)C)NC(=O)[C@H](CC(C)C)NC(=O)OCc1ccccc1` [MG132] (Cbz-Leu-Leu-Leu-aldehyde) the “V5-RPL15 depletion by AZD6244” value [6] was “prevented” and the “depletions of endogenous RPL15 and RPL3 by AZD6244” value (c-MYC, RPL15, RPL3) was “prevented”.
